Molecular target: T1, soluble guanylate cyclase (human GUCYA3/GUCYB3) overexpressed in CHO cells (Homo sapiens, UniProt Q02108+Q02153)
T1 construct: expressed in transfected cells
T1 sequence (Q02108 1-690 partner): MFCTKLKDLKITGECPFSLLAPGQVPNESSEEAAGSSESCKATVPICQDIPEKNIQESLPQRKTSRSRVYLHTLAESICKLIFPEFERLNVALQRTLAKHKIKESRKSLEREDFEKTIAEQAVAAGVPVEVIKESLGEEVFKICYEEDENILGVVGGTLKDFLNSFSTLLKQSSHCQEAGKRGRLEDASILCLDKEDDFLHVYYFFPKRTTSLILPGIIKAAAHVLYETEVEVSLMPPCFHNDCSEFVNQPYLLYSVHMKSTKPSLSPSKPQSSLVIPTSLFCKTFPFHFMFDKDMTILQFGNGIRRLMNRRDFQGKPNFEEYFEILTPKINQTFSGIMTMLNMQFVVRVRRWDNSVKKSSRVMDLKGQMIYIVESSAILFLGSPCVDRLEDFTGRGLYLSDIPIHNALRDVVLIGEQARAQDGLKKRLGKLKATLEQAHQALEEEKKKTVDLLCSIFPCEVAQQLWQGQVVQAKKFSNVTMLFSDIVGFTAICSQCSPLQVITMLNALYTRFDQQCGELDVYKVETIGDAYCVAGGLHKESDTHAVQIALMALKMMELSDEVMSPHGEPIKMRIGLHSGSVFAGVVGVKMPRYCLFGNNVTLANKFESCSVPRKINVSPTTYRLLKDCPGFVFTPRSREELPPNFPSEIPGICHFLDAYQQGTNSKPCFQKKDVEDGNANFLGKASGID
T1 sequence (Q02153 1-619): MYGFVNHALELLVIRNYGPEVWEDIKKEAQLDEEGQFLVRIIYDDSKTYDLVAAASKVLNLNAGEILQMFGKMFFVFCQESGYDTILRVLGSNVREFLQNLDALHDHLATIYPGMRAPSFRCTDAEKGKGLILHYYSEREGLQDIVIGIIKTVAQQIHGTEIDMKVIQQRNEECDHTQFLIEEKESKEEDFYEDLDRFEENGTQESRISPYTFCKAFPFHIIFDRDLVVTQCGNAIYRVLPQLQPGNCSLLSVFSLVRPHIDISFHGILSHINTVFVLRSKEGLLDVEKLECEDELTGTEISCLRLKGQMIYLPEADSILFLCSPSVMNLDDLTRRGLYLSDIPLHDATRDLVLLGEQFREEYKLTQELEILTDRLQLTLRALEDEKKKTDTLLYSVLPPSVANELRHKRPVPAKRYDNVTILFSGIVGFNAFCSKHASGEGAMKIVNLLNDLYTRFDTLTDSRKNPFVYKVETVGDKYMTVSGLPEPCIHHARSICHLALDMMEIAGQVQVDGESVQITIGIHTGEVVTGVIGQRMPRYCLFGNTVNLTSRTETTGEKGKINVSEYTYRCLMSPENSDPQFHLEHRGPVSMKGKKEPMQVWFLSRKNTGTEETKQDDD
Test: CHO cellular assay (cGMP production, HTRF)
Format: cell-based
Conditions: CHO K1 clone 8E10 overexpressing human sGC, Cisbio HTRF, 1 h room temperature, 1 mM IBMX, 20 uM ODQ, minimum quantification limit 0.5 nM
Source text: Chinese hamster ovary (CHO) cells overexpressing soluble guanylate cyclase were generated to test the effect of sGC activators in a cellular context. Human cDNAs for GUCYA3 (RefSeq: NM_000856.3) and GUCYB3 (RefSeq: NM_000857.1) were amplified by PCR from a HUVEC (Human Umbilical Vein Endothelial Cells) cDNA library and cloned into mammalian expression vectors. CHO K1 cells (ATCC CCL-61) were transfected using Lipofectamine 2000 following manufacturer's instructions and stably expressing clones were identified by antibiotic selection. CHO GUCY clone 8E10 was used for subsequent experiments.
Cells were seeded at a density of 3000 cells/well in white 384-well proxyplates (Perkin Elmer) and incubated overnight, then the medium was removed and cells were washed with assay buffer (HBSS, 0.1% BSA, 1 mM IBMX, 20 uM ODQ). sGC activators were serially diluted in DMSO, then diluted in assay buffer prior to adding to cells (10 ul/well, final DMSO concentration 0.5%). Cells were incubated with compounds for 1 h room temperature, then assayed for cGMP production using Cisbio cGMP HTRF kit (62GM2PEC) according to manufacturer's instructions.
The EC50s are calculated based on the amount of cGMP interpolated from the standard curve, using a 4-parameter sigmoidal dose-response.

Structure (SMILES)	EC50
CCc1cc(OCc2cc(C)sc2-c2cccc(-n3ncc(C(=O)O)c3CC)n2)ccc1C1CCN(C(=O)C2CC2)CC1 [Example 35-9, 1-(6-(3-((4-(1-(Cyclopropanecarbonyl)piperidin-4-yl)-3-ethylphenoxy)methyl)-5-methylthiophen-2-yl)pyridin-2-yl)-5-ethyl-1H-pyrazole-4-carboxylic acid]	≤ 0.5 nM
CCc1cc(NCc2c(C(F)(F)F)csc2-c2cccc(-n3ncc(C(=O)O)c3CC)n2)ccc1C1CCN(C(=O)C2CC2)CC1 [Example 38, 1-(6-(3-(((4-(1-(Cyclopropanecarbonyl)piperidin-4-yl)-3-ethylphenyl)amino)methyl)-4-(trifluoromethyl)thiophen-2-yl)pyridin-2-yl)-5-ethyl-1H-pyrazole-4-carboxylic acid]	≤ 0.5 nM
CCc1cc(OCc2cc(C)sc2-c2cccc(-n3ncc(C(=O)O)c3C(F)(F)F)n2)ccc1C1CCN(C(=O)N(C)C)CC1 [Example 35-7, 1-(6-(3-((4-(1-(Dimethylcarbamoyl)piperidin-4-yl)-3-ethylphenoxy)methyl)-5-methylthiophen-2-yl)pyridin-2-yl)-5-(trifluoromethyl)-1H-pyrazole-4-carboxylic acid]	≤ 0.5 nM
CCc1c(C(=O)O)cnn1-c1cccc(-c2sc(C)cc2CCc2ccc(C3CCN(C(=O)C4CC4)CC3)cc2C)n1 [Example 45, 1-(6-(3-(4-(1-(Cyclopropanecarbonyl)piperidin-4-yl)-2-methylphenethyl)-5-methylthiophen-2-yl)pyridin-2-yl)-5-ethyl-1H-pyrazole-4-carboxylic acid]	≤ 0.5 nM
Cc1cc(C2CCN(CC(F)(F)F)CC2)ccc1NCc1c(C)csc1-c1cccc(-n2ncc(C(=O)O)c2C(F)(F)F)n1 [Example 20-3, 1-(6-(4-Methy1-3-(((2-methy1-4-(1-(2,2,2-trifluoroethyl)piperidin-4-yl)phenyl)amino)methyl)thiophen-2-yl)pyridin-2-yl)-5-(trifluoromethyl)-1H-pyrazole-4-carboxylic acid]	39 nM
CCc1cc(NCc2cc(C)sc2-c2cccc(-n3ncc(C(=O)O)c3CC)n2)ccc1C1CCN(C(=O)C2CC2)CC1 [Example 37, 1-(6-(3-(((4-(1-(Cyclopropanecarbonyl)piperidin-4-yl)-3-ethylphenyl)amino)methyl)-5-methylthiophen-2-yl)pyridin-2-yl)-5-ethyl-1H-pyrazole-4-carboxylic acid]	≤ 0.5 nM

More lines, now with the values ahead:

EC50	Structure (SMILES)
12 nM	Cc1csc(-c2cccc(-n3ncc(C(=O)O)c3C(F)(F)F)n2)c1CNc1ccc(C2CCN(C(=O)C3CC3)CC2)cc1 [Example 20-1, 1-(6-(3-(((4-(1-(Cyclopropanecarbonyl)piperidin-4-yl)phenyl)amino)methyl)-4-methylthiophen-2-yl)pyridin-2-yl)-5-(trifluoromethyl)-1H-pyrazole-4-carboxylic acid]
4.5 nM	Cc1cc(C2CCN(C(=O)C3CC3)CC2)ccc1OCc1ccsc1-c1cccc(-n2ncc(C(=O)O)c2C(F)(F)F)n1 [Example 12-2, 1-(6-(3-((4-(1-(Cyclopropanecarbonyl)piperidin-4-yl)-2-methylphenoxy)methyl)thiophen-2-yl)pyridin-2-yl)-5-(trifluoromethyl)-1H-pyrazole-4-carboxylic acid]
15 nM	Cc1cc(C2CCN(C(=O)C3CC3)CC2)ccc1OC(C)c1ccsc1-c1cccc(-n2ncc(C(=O)O)c2C(F)(F)F)c1 (stereo not shown) [Example 10-8, 1-(3-(3-(1-(4-(1-(Cyclopropanecarbonyl)piperidin-4-yl)-2-methylphenoxy)ethyl)thiophen-2-yl)phenyl)-5-(trifluoromethyl)-1H-pyrazole-4-carboxylic acid]
14 nM	CCc1cc(COc2ccc(C3CCN(CC(F)(F)F)CC3)cc2C)c(-c2cccc(-n3ncc(C(=O)O)c3C(F)(F)F)n2)s1 [Example 6-17, 1-(6-(5-Ethyl-3-((2-methyl-4-(1-(2,2,2-trifluoroethyl)piperidin-4-yl)phenoxy)methyl)thiophen-2-yl)pyridin-2-yl)-5-(trifluoromethyl)-1H-pyrazole-4-carboxylic acid]
